Consider 3 compounds from patent publication US20020072512A1, “Method of preventing and treating HIV-mediated central nervous system damage” (priority 2000, published 2002).

Experiment [1] relates to Lipari astroglial cell line incubated with supernatant of HIV-1 infected macrophages. The experiment can be described thus: FACS analysis of apoptotic cell death of astrocytes exposed to supernatant of HIV-infected macrophages. It counts as cell-based, human. The settings on record: M40401 10-100 μM, L-NAME 100 μM, AZT 50 μM. Here is the method: (§1) The astrocytic cell line Lipari was derived from a patient who presented a large right front-temporal mass (astrocytoma), and grown as previously described (Mollace, V., Colasanti, M., Rodinò, P., Lauro, G. M. & Nisticò, G. (1994b). Biochem. Biophys. Res. Commun. 203, 87-92.). Cells were expanded and cultured by seeding them in 25cm plastic flasks at a density of 0.7×10^6 cells/flask in complete medium, and incubated at 37° C. in humidified air containing 5% CO2.
(§2) A monocytotropic strain of HIV-1, named HIV-1Ba-L was used in all experiments. M/M cultures were exposed to HIV and virus expansion was performed. After 2 hours, virus was removed by washing cultures with warm medium and then cultures of M/M infected by HIV were carried out for further 13-15 days.
The supernatant of HIV-infected M/M was collected 13 days after virus infection and then incubated for 3 hours with cultured astrocytes. The supernatant of Mock-infected M/M was used as control treatment. […]
The astrocytic cells either treated or untreated with supernatants of HIV-infected macrophages were gently detached from plastic 8 days after exposure. […] Propidium iodide-stained cells were analysed with a FACScan Flow Cytometer; fluorescence was measured between 565 and 605nm. The data were acquired and analysed by the Lysis II program.
(In flow cytometry, cells or beads pass a laser one at a time.)

Experiment [2] has as its system astroglial cells incubated with supernatants of HIV-infected macrophages. The experiment can be described thus: Malondialdehyde (MDA) in astroglial cells incubated with supernatants of HIV-infected macrophages. It counts as cell-based, human. The conditions noted are these: M40401 100 μM, L-NAME 100 μM, AZT 50 μM, MDA in nmol g-1. How it is done: as §1, §2
(§3) The supernatant of HIV-infected M/M was collected 13 days after virus infection and then incubated for 3 hours with cultured astrocytes. The supernatant of Mock-infected M/M was used as control treatment. […] HIV-p24 antigen production in supernatants of M/M was assesed using a commercially available ELISA Kit (HIV-p24 gag Abbott Lab, Pomezia, Italy).

Experiment [3] concerns astroglial cells exposed to supernatant of HIV-infected macrophages. The experiment in a line: Ultrastructural studies (electron microscopy) of astroglial cells. The format is cell-based, human. The settings on record: co-incubation, AZT 50 μM; for pro-apoptotic effect of supernatant of HIV-infected M/M on astroglial cell ultrastructure: M40401 10-100 μM, L-NAME 100 μM. Here is the method: as §1, §2, §3
Cells for electron microscopy were fixed in 2.5% glutaraldehyde in PBS pH7.4 at 4° C. and then washed for 2 hours in PBS and post fixed in osmium tetroxide 1,33% for 2 hours at 4° C. After several washes in PBS, the cells were dehydrated in graded alcohol, transferred into toluene, and embedded in Epon 812 resin. The resin was allowed to polymerize in a dry oven at 60° C. for 24 hours. Thin sections were cut with a glass knife Reichert microtome, stained with Touloidine Blue and examined on Axioscope microscope. Ultra-thin sections were cut on a Reichert microtome using a diamond knife, stained with uranyl-acetate-lead-hydroxide and evaluated and photographed on a Philips electron microscope CM 10 (Philips).

Experiment [4] in a line: Catalytic catalase activity assay using oxygen electrodes. The settings on record: total oxygen evolved. It counts as biochemical.
The conditions of experiment [5]: same conditions (pH=7.4 and 21° C.); cited from earlier work.
Experiment [6] is described as follows: Reaction with hydrogen peroxide (spectrophotometric or cyclic voltammetric monitoring). It counts as biochemical. The conditions noted are these: spectrophotometric or electrochemical (cyclic voltammetric) techniques.

Consider `COC(=O)[C@@H](N)CCCNC(=N)N[N+](=O)[O-]` [L-NAME], for which, in experiment [1], the “apoptotic cell death of astroglial cells as evaluated by FACS analysis” value is on record as “failed to modify”. The “MDA overproduction (lipid peroxydation)” value in experiment [2] was “failed to antagonize”. In addition, the “pro-apoptotic effect of supernatant of HIV-infected M/M on astroglial cell ultrastructure” value in experiment [3] is “failed to inhibit”.

In the case of `[Cl-].[Cl-].[Mn+2].c1cc2nc(c1)CN[C@@H]1CCCC[C@H]1NCCN[C@@H]1CCCC[C@H]1NC2` [M40403], the “catalytic catalase activity with H2O2” value in experiment [4] is reported as “no catalytic activity is observed”. In addition, in experiment [5], the “reaction with hydrogen peroxide” value is on record as “do not react”. Besides, the “stoichiometric reaction with H2O2” value in experiment [6] is “no stoichiometric reaction is observed”.

In the case of `Cc1cn([C@H]2C[C@H](N=[N+]=[N-])[C@@H](CO)O2)c(=O)[nH]c1=O` [AZT], in experiment [2], the “MDA overproduction (lipid peroxydation)” value was “failed to antagonize”. In addition, the “pro-apoptotic effect of HIV-infected macrophages on astroglial cell ultrastructure” value in experiment [3] (FIG. 5, M40401 100 μM) is “failed to inhibit”. Further, the “pro-apoptotic effect of supernatant of HIV-infected M/M on astroglial cell ultrastructure” value in experiment [3] is listed as “failed to inhibit”.
